Measured values: patent publication US20170209373A1, “MULTIFUNCTIONAL POLYMERIC NANOPARTICLE FOR DIAGNOSIS OR TREATMENT OF CEREBRAL DISEASES AND A PREPARATION METHOD THEREOF” (KOREA INSTITUTE OF SCIENCE AND TECHNOLOGY, priority 2016, published 2017)

System: luciferase-expressing U-87 MG cells
Assay: Cancer treating effect in brain tumor model (bioluminescence signals)
Type: in vivo, mouse
Description: The NP-cur aqueous dispersion prepared according to Example 1-1 was intravenously injected daily at a dose of 200 μL from day 3 of the transplantation of the cancer cells in the brain tumor model prepared according to Example 3-1. […] For the control groups to which the drug was not administered, a group (control of FIG. 11) to which the F-127 aqueous solution was intravenously injected daily for 3 weeks at a dose of 200 μL, and a group (free curcumin of FIG. 11) to which curcumin which was not loaded in the polymeric nanoparticles but was dissolved in an organic solvent, dimethyl sulfoxide (DMSO, Daejung Chemicals & Metals Co., LTD., Korea), was intraperitoneally injected at a dosage of 360 mg/kg daily for 3 weeks was selected to observe the bioluminescence signals in the same manner as in the NP-cur administration experimental group. Finally, the bioluminescence signals observed in the two control groups and experimental group and the results of comparative analysis thereof are shown in FIG. 11.

COc1cc(/C=C/C(=O)CC(=O)/C=C/c2ccc(O)c(OC)c2)ccc1O [curcumin]
effect on tumor growth (NP-cur 0.2 mg/kg/d i.v., curcumin solution 360 mg/kg/d i.p.): only slightly slowed
bioluminescence intensity of brain tumor over time (days 7, 14, 21) (NP-cur 200 μL i.v. daily (0.2 mg/kg/d curcumin), free curcumin in DMSO i.p. 360 mg/kg daily for 3 weeks): still showed a large signal increase
